The values that follow come from ChEMBL document CHEMBL4118038, “Tricyclic Polyprenylated Acylphloroglucinols from St John's Wort, Hypericum perforatum” (J Nat Prod, 2017).

The target in the first experiment is Acetylcholinesterase (Homo sapiens, UniProt P22303). In words: Inhibition of human erythrocyte AChE using S-acetylthiocholine iodide as substrate preincubated for 20 mins followed by substrate addition measured every 30 secs for 1 hr by Ellman's method.
Sequence of Acetylcholinesterase (P22303 whole entry): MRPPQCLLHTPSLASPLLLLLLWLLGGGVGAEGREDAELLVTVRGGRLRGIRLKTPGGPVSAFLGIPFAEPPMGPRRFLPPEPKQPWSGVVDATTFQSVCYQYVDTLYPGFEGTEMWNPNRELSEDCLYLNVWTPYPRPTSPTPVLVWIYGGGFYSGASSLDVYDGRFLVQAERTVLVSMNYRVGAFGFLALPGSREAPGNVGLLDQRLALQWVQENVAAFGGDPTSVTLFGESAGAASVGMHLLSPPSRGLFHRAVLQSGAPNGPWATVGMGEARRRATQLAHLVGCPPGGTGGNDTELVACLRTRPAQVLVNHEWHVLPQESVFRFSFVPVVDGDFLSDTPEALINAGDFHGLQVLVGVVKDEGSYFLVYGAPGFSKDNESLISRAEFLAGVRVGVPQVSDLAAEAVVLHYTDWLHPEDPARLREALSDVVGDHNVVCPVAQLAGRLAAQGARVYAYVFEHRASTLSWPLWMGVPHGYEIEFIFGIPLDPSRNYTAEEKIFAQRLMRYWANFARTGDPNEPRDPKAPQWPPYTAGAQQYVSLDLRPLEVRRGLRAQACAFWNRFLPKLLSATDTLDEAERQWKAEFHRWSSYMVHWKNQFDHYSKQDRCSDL
Settings: not given
A general note: In Ellman's method for cholinesterases, released thiocholine reacts with DTNB.
Turning to `CC(C)=CCC1=C2O[C@H](C(C)(C)O)C[C@@]23C[C@H](CC=C(C)C)[C@@](C)(CCC(=O)C(C)C)[C@@](C(=O)C(C)C)(C1=O)C3=O`, half-maximal inhibition (IC50) required 24.3 µM. On to `CC(C)=CCC[C@]1(C)[C@@H](CC=C(C)C)C[C@]2(CC=C(C)C)C(=O)C3=C(O[C@H](C(C)(C)O)[C@H]3O)[C@@]1(C(=O)C(C)C)C2=O`, for which inhibition was half-maximal at 8.83 µM (IC50). On the same count and under the same terms, the same measure for `CC(C)=CCC[C@]1(C)[C@@H](CC=C(C)C)C[C@@]2(CC=C(C)C)C(=O)[C@]1(C(=O)C(C)C)C(=O)C1=C2O[C@@H](C(C)(C)O)[C@@H]1O`: 11.3 µM.

Consider `CC(=O)[C@@]12C(=O)C(CC=C(C)C)=C3O[C@H](C(C)(C)O)C[C@]3(C[C@H](CC=C(C)C)[C@@]1(C)CCC=C(C)C)C2=O`, for which the IC50 (in general, the concentration that gives 50% inhibition) was 8.75 µM. On the same count and under the same terms, in the case of `CC(C)=CC[C@H]1C[C@@]2(CC=C(C)C)C(=O)[C@](C(=O)C(C)C)(C(=O)C3=C2O[C@H](C(C)(C)O)C3)[C@]1(C)CCC(=O)C(C)C` it was 10.9 µM; in that of `C=C(C)[C@@H](O)CC[C@]1(C)[C@@H](CC=C(C)C)C[C@]2(CC=C(C)C)C(=O)C3=C(O[C@H](C(C)(C)O)C3)[C@@]1(C(=O)C(C)C)C2=O`, 10.7 µM.

`CC(C)=CCC[C@]1(C)[C@@H](CC=C(C)C)C[C@@]2(CC=C(C)C)C(=O)[C@]1(C(=O)C(C)C)C(=O)C1=C2O[C@H](C(C)(C)O)[C@H]1O` showed a half-maximal inhibitory concentration (IC50) of 18.6 µM.

Consider `C=C(C)[C@H](O)CC[C@]1(C)[C@@H](CC=C(C)C)C[C@@]2(CC=C(C)C)C(=O)[C@]1(C(=O)C(C)C)C(=O)C1=C2O[C@H](C(C)(C)O)C1`, for which the IC50 was 26.4 µM.

In turn, `COC(C)(C)/C=C/C[C@]1(C)[C@@H](CC=C(C)C)C[C@]2(CC=C(C)C)C(=O)C3=C(O[C@H](C(C)(C)O)C3)[C@@]1(C(=O)C(C)C)C2=O` displayed a concentration for half-maximal inhibition (IC50) of 3.98 µM. The same measure, in the same setting: in the case of `COC(C)(C)/C=C/C[C@]1(C)[C@@H](CC=C(C)C)C[C@]2(CC=C(C)C)C(=O)C3=C(O[C@@H](C(C)(C)O)C3)[C@@]1(C(=O)C(C)C)C2=O` it was 7.17 µM; in that of `CC(C)=CCC[C@]1(C)[C@@H](CC=C(C)C)C[C@]2(CC=C(C)C)C(=O)C3=C(O[C@@H](C(C)(C)O)[C@@H]3O)[C@@]1(C(=O)C(C)C)C2=O`, 12.6 µM.

With `C=C(C)[C@H](O)CC[C@]1(C)[C@@H](CC=C(C)C)C[C@]2(CC=C(C)C)C(=O)C3=C(O[C@H](C(C)(C)O)C3)[C@@]1(C(=O)C(C)C)C2=O`, half-maximal inhibition (IC50) required 19.6 µM. The same measure, in the same setting: the same measure for `C=C(C)[C@H](O)CC[C@]1(C)[C@@H](CC=C(C)C)C[C@@]2(CC=C(C)C)C(=O)[C@]1(C(=O)C(C)C)C(=O)C1=C2O[C@@H](C(C)(C)O)C1`: 25.1 µM; for `C=C(C)[C@@H](O)CC[C@]1(C)[C@@H](CC=C(C)C)C[C@]23C[C@@H](C(C)(C)O)OC2=C(CC=C(C)C)C(=O)[C@@]1(C(=O)C(C)C)C3=O`: 9.13 µM.

For the next experiment, the system named is SMMC-7721. Description: Cytotoxicity against human SMMC7721 cells assessed as reduction in cell viability after 48 hrs by MTS assay. Particulars: SMMC-7721, 48 h. Type of experiment: functional, cell-based. For orientation: Tetrazolium dyes change colour on reduction, which living cells bring about.
As for `CC(=O)[C@@]12C(=O)C(CC=C(C)C)=C3O[C@H](C(C)(C)O)C[C@]3(C[C@H](CC=C(C)C)[C@@]1(C)CCC=C(C)C)C2=O`, the concentration for half-maximal inhibition (IC50) worked out at 10 µM. Same read-out and setting: in the case of `C=C(C)[C@H](O)CC[C@]1(C)[C@@H](CC=C(C)C)C[C@@]2(CC=C(C)C)C(=O)[C@]1(C(=O)C(C)C)C(=O)C1=C2O[C@H](C(C)(C)O)C1` it was 9.1 µM.
